Results from US7378403B2, “Akt inhibitors, pharmaceutical compositions, and uses thereof” (The United States of America as represented by the …, priority 2002, dated 2008).

What was measured:
Format in all cases: cell-based
p38 = assay: Immunoblotting with phospho-specific antibodies: p38 phosphorylation; conditions: H1703 (FIG. 3A) or H157 cells (FIG. 3B)
Method: (§1) The SH compounds were tested against Akt and other kinases that are either upstream of Akt (PDK-1), downstream of Akt (c-Raf, 4EBP-1, p70S6K, FKHR, GSK-3, and/or AFX), or downstream of Ras (ERK, p38). Immunoblotting was carried out with phospho-specific antibodies to assess activation state of the kinases, and with native antibodies to assess changes in protein levels. Similar results were obtained with the H1703 (FIG. 3A) or H157 cells (FIG. 3B). […] Upstream of Akt, phosphorylation of PDK-1 was not affected by any SH compound. Of the downstream substrates, c-Raf phosphorylation and 4EBP-1 phosphorylation were decreased most. Decreased c-Raf phosphorylation correlated with increased ERK and p38 phosphorylation, which is consistent with the inhibitory effect of S259 phosphorylation by Akt on c-Raf activity.

[1] = system: H1703, H157, and H1155 cells; assay: Apoptosis in cell lines with high levels of Akt activity; conditions: FIG. 4
Method: (§2) Cell lines containing high or low endogenous levels of Akt activity were treated with SH compounds and the cell apoptosis was measured.

Akt = assay: Immunoblotting with antibodies against Akt phosphorylated at S473 and native Akt after administration of compounds to cancer cell lines; conditions: for Akt phosphorylation at S473 (immunoblot) / native Akt levels (immunoblot): FIG. 1D; for decreasing Akt phosphorylation: panel of cancer cell lines (summary)
Method: The SH compounds were tested against Akt and other kinases that are either upstream of Akt (PDK-1), downstream of Akt (c-Raf, 4EBP-1, p70S6K, FKHR, GSK-3, and/or AFX), or downstream of Ras (ERK, p38). Immunoblotting was carried out with phospho-specific antibodies to assess activation state of the kinases, and with native antibodies to assess changes in protein levels.

H1355 and A549 cells = assay: Apoptosis in cells with low endogenous Akt levels
Method: as §2

4EBP-1 = assay: Immunoblotting with phospho-specific antibodies: 4EBP-1 phosphorylation; conditions: summary, cell line not specified
Method: as §1

tuberin = assay: Phosphorylation of tuberin
Description: SH5, 6, 23, 24, and 25 are very active in decreasing Akt phosphorylation in a panel of cancer cell lines. These compounds decrease Akt phosphorylation as well as Akt kinase activity, with IC50s in the low micromolar range. These compounds appear to be specific for Akt, as the phosphorylation of the upstream kinase, PDK-1, is unaffected by any of the SH compounds, as is […]. Cell-line specific, selective inhibition of phosphorylation of substrates downstream of Akt, such as c-Raf, 4EBP-1, GSK-3, and/or FKHR/AFX was observed. […] Phosphorylation of tuberin, 4EBP-1 and P70S6K (substrates that control protein translation) was inhibited by SH23, 24, and 25; and SH5-6 inhibited phosphorylation of tuberin and 4EBP-1. Phosphorylation of forkhead family members AFX and FKHR that control transcription was inhibited by SH23 or 25. Phosphorylation of GSK-3 and c-Raf was attenuated by SH23-25.

p70S6K = assay: Immunoblotting with phospho-specific antibodies: p70S6K phosphorylation
Method: as §1

MB468 cells = assay: Apoptosis in MB468 cells; conditions: MB468 cells (data not shown)
Method: as §2

AFX = assay: Immunoblotting with phospho-specific antibodies: AFX phosphorylation
Method: as §1

FKHR = assay: Immunoblotting with phospho-specific antibodies: FKHR phosphorylation
Method: as §1

[2] = H1703 (FIG. 3A) or H157 cells (FIG. 3B)

Row | Structure (SMILES) | p38 phosphorylation (p38) | increase of apoptosis [1] | Akt phosphorylation at S473 (immunoblot) (Akt; cell line not specified (H1703, H157)) | Akt phosphorylation (Akt; [2]) | apoptosis (H1355 and A549 cells) | native Akt levels (immunoblot) (Akt) | Akt phosphorylation at S473 (immunoblot) (Akt; H1703 cells (wild type PTEN)) | Akt phosphorylation (Akt; all three cell lines, FIG. 1F) | decreasing Akt phosphorylation (Akt) | phosphorylation of 4EBP-1 (4EBP-1) | phosphorylation of tuberin (tuberin) | phosphorylation of P70S6K (p70S6K) | native Akt levels (Akt; [2]) | apoptosis (MB468 cells) | phosphorylation of AFX (AFX) | phosphorylation of FKHR (FKHR) | Akt phosphorylation at S473 (immunoblot) (Akt; H157 cells (mutant PTEN))
1 | CCCCCCCCCCCCCCCCCCOCC(COP(=O)(O)OC1C(O)CC(O)C(O)C1O)OC (centres unmarked) [DPIEL] | decreased | no effect | – | – | – | – | – | – | – | – | – | – | – | – | – | – | –
2 | CCCCCCCCCCCCCCCCCCOC[C@H](CO)OC [SH7, reference compound] | – | no effect | lack of decreased phosphorylation | did not decrease | did not undergo apoptosis | – | – | – | – | – | – | – | – | – | – | – | –
3 | CCCCCCCCCCCCCCCCCCOCC(COP(=O)(O)OC1C(OCC2CCCCC2)CC(O)C(O)C1O)OC (centres unmarked) [SH24] | – | – | – | – | – | without affecting | decreased | completely inhibited | very active | inhibited | inhibited | inhibited | – | – | – | – | –
4 | CCCCCCCCCCCCCCCCCCOC[C@H](COP(=O)(O)O[C@H]1[C@H](O)[C@@H](O)[C@H](O)C[C@H]1OC)OC [SH5] | – | – | – | inhibited | did not undergo apoptosis | without affecting | decreased | completely inhibited | very active | inhibited | inhibited | – | without affecting | Increased apoptosis | – | – | –
5 | CCCCCCCCCCCCCCCCCCOC[C@H](COP(=O)(O)O[C@@H]1CC[C@@H](O)[C@H](O)[C@H]1O)OC [SH6] | – | – | – | inhibited | did not undergo apoptosis | without affecting | decreased | completely inhibited | very active | inhibited | inhibited | – | without affecting | Increased apoptosis | – | – | –
6 | CCCCCCCCCCCCCCCCCCOCC(COP(=O)(O)OC1C(OCC(C)C)CC(O)C(O)C1O)OC (centres unmarked) [SH23] | – | – | – | – | – | without affecting | decreased | completely inhibited | very active | inhibited | inhibited | inhibited | – | – | inhibited | inhibited | –
7 | CCCCCCCCCCCCCCCCCCOCC(COP(=O)(O)OC1C(O)CCC(O)C1O)OC (centres unmarked) [SH25] | – | – | – | – | – | without affecting | decreased | completely inhibited | very active | inhibited | inhibited | inhibited | – | – | inhibited | inhibited | –
8 | CCCCCCCCCCCCCCCCCCOC[C@H](COP(=O)(O)O[C@@H]1[C@H](O)[C@H](O)C[C@H](O)[C@H]1O)OC [SH10] | – | – | – | inhibited | – | – | – | – | – | – | – | – | without affecting | – | – | – | –
9 | CCCCCCCCCCCCCCCCCCOC[C@H](COP(=O)(O)O[C@H]1[C@H](O)C[C@H](O)C[C@H]1O)OC [SH16] | – | – | – | – | – | without affecting | decreased | – | – | – | – | – | – | – | – | – | All but SH16
